The source made the active and inactive calls. No cut-off for these calls is given here.
Legend:
PC-12 = test: Antioxidant activity in rat differentiated PC12 cells assessed as inhibition of H2O2-induced cell death after 15 hrs by MTS assay; type: functional, cell-based
[1] = test system: Radical scavenging activity; test: Antioxidant activity assessed as DPPH free radical scavenging activity over 30 mins by spectrophotometry; type: functional
[2] = Cytotoxicity against rat differentiated PC12 cells assessed as cell viability at <= 10 ug/ml after 15 hrs by MTS assay; type: cell-based; conditions: pc-12, 15 h
[3] = Chemical stability of the compound in PBS buffer at 1 ug/ml after 24 hrs by fluorescence assay in presence of 0.3% H2O2; type: physicochemical

Row | SMILES | Activity (PC-12) | Activity [1] | Activity [2] | Stability [3]
1 | CC(O)c1ccc(/C=C/c2ccc(C(C)O)cc2)cc1 (stereo not given) | inactive | inactive | Non-toxic | 
2 | Nc1ccc(/C=C/c2ccc(N)cc2)cc1 | Active | Active | Non-toxic | 
3 | Oc1ccc(/C=C/c2ccc(O)cc2)cc1 | Active |  |  | 
4 | C(=C\c1ccccc1)/c1ccccc1 |  | inactive | Non-toxic | 
5 | CC(=O)c1ccc(/C=C/c2ccc(C(C)=O)cc2)cc1 |  | inactive | Non-toxic | Unstable
6 | N#Cc1ccc(/C=C/c2ccc(C#N)cc2)cc1 |  | inactive | Non-toxic | Unstable
